These results are taken from paper PMC11233931, “Remodeling tumor‐associated macrophage for anti‐cancer effects by rational design of irreversible inhibition of mitogen‐activated protein kinase‐activated protein kinase 2” (MedComm, 2024).

Test in all cases: Eurofins kinase selectivity profile against 380 other human recombinant kinases (Table S2)
Format in all cases: biochemical

The target in assay [1] is T1, 380 human recombinant protein kinases (Homo sapiens, UniProt P29322).
T1 construct: purchased Eurofins (Celle Lévescault)
T1 sequence (P29322 28-1005): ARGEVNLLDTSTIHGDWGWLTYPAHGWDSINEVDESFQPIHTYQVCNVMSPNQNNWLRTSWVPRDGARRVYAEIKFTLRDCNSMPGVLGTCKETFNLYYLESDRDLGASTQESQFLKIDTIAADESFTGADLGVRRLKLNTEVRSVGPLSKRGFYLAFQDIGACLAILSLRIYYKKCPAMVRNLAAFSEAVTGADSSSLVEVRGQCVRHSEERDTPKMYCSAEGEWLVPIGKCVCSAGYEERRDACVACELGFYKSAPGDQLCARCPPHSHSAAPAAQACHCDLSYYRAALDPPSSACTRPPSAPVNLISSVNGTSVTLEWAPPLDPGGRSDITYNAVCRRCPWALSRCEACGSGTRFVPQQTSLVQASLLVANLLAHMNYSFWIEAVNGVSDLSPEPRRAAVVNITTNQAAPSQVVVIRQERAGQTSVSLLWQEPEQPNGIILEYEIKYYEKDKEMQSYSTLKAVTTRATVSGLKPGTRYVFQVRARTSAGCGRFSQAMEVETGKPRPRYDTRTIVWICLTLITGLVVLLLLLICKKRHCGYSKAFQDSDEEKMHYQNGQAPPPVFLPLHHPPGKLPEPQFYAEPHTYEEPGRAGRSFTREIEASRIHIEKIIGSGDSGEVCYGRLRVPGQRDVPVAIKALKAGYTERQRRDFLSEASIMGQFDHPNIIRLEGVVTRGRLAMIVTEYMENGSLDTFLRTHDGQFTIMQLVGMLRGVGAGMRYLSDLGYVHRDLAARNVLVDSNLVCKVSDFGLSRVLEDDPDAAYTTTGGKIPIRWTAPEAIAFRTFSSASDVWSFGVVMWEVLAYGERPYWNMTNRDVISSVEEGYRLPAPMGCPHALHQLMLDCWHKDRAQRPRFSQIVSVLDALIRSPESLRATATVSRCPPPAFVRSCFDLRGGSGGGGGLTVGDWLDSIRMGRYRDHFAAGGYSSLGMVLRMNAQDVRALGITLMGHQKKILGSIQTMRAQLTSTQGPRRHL
Conditions: EphA8(h), read-out: Inhibition rate. The procedure, abridged: (§1)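 Profiling against 380 human recombinant kinases carried out by Eurofins at various compound concentrations.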

The target in assay [2] is T2, 380 human recombinant protein kinases (Homo sapiens, UniProt Q12866).
T2 construct: purchased Eurofins (Celle Lévescault)
T2 sequence (Q12866 21-999): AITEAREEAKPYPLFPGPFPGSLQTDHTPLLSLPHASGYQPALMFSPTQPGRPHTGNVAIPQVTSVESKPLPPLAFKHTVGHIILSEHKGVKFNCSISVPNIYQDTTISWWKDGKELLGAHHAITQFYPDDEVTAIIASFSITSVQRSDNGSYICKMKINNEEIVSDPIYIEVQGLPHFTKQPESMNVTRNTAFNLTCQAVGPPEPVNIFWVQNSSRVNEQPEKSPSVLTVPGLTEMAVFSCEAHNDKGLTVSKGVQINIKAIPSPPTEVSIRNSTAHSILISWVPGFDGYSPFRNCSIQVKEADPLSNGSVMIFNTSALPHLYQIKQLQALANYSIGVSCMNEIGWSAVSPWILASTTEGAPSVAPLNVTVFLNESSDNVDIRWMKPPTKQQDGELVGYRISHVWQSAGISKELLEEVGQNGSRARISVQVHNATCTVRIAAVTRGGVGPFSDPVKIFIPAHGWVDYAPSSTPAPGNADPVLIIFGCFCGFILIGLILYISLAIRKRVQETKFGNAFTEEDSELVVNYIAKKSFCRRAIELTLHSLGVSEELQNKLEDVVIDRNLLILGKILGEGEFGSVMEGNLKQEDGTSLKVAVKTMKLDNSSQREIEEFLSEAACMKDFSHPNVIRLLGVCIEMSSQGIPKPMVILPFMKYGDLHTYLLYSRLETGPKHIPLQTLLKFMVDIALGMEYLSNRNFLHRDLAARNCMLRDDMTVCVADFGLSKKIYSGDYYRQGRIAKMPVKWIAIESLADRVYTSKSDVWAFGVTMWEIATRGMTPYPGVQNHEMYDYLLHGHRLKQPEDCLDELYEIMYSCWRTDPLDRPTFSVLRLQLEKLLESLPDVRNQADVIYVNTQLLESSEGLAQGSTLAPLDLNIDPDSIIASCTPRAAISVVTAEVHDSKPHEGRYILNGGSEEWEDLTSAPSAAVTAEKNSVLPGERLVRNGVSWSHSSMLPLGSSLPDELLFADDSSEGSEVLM
The conditions noted are these: Mer(h), read-out: Inhibition rate. Put shortly:
as §1

Assay [3] deals with T3, 380 human recombinant protein kinases (Homo sapiens, UniProt Q9H3Y6).
T3 construct: purchased Eurofins (Celle Lévescault)
T3 sequence (Q9H3Y6 whole entry): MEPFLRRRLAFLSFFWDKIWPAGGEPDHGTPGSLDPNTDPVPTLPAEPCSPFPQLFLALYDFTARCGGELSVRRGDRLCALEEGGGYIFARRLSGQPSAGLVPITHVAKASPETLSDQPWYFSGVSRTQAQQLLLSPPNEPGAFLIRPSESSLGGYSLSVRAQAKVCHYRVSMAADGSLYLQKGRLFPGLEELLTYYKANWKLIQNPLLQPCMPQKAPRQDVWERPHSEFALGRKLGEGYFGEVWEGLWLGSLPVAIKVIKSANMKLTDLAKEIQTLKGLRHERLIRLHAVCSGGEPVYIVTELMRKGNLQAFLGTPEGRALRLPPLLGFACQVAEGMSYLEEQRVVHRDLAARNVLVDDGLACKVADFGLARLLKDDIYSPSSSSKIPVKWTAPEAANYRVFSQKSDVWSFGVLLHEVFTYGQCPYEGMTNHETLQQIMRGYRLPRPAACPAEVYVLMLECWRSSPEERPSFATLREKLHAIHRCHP
Conditions: SRMS(h), read-out: Inhibition rate (%). The procedure, abridged: as §1

In assay [4] the target is T4, 380 human recombinant protein kinases (Homo sapiens, UniProt Q13131).
T4 construct: purchased Eurofins (Celle Lévescault)
T4 sequence (Q13131 whole entry): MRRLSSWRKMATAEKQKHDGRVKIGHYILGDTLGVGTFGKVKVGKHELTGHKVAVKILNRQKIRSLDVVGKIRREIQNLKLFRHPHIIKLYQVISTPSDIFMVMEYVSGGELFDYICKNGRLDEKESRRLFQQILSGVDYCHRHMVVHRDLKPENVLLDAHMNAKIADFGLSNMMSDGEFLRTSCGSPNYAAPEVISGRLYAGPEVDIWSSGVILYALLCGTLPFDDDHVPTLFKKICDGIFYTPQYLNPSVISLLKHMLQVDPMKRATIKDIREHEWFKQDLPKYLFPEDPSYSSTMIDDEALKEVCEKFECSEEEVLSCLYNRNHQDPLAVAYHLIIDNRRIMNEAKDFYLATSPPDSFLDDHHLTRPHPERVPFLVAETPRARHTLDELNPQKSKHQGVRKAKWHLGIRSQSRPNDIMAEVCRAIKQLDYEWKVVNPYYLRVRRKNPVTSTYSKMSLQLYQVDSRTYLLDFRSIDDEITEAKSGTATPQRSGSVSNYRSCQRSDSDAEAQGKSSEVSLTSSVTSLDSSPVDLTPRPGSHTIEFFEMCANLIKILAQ
Conditions: AMPKα1(h), read-out: Inhibition rate. The procedure, abridged: as §1

Assay [5] has as its target T5, 380 human recombinant protein kinases (Homo sapiens, UniProt P57059).
T5 construct: purchased Eurofins (Celle Lévescault)
Conditions: SIK(h), read-out: Inhibition rate (%). Put shortly:
as §1

Assay [6] concerns the target T6, 380 human recombinant protein kinases (Homo sapiens, UniProt Q9UKE5).
T6 construct: purchased Eurofins (Celle Lévescault)
Conditions: TNIK(h), read-out: Inhibition rate (%). The procedure, abridged: as §1

The target of assay [7] is T7, 380 human recombinant protein kinases (Homo sapiens, UniProt Q9UEW8).
T7 construct: purchased Eurofins (Celle Lévescault)
Conditions: STK39(h), read-out: Inhibition rate (%). Put shortly:
as §1

T6 sequence (Q9UKE5 whole entry): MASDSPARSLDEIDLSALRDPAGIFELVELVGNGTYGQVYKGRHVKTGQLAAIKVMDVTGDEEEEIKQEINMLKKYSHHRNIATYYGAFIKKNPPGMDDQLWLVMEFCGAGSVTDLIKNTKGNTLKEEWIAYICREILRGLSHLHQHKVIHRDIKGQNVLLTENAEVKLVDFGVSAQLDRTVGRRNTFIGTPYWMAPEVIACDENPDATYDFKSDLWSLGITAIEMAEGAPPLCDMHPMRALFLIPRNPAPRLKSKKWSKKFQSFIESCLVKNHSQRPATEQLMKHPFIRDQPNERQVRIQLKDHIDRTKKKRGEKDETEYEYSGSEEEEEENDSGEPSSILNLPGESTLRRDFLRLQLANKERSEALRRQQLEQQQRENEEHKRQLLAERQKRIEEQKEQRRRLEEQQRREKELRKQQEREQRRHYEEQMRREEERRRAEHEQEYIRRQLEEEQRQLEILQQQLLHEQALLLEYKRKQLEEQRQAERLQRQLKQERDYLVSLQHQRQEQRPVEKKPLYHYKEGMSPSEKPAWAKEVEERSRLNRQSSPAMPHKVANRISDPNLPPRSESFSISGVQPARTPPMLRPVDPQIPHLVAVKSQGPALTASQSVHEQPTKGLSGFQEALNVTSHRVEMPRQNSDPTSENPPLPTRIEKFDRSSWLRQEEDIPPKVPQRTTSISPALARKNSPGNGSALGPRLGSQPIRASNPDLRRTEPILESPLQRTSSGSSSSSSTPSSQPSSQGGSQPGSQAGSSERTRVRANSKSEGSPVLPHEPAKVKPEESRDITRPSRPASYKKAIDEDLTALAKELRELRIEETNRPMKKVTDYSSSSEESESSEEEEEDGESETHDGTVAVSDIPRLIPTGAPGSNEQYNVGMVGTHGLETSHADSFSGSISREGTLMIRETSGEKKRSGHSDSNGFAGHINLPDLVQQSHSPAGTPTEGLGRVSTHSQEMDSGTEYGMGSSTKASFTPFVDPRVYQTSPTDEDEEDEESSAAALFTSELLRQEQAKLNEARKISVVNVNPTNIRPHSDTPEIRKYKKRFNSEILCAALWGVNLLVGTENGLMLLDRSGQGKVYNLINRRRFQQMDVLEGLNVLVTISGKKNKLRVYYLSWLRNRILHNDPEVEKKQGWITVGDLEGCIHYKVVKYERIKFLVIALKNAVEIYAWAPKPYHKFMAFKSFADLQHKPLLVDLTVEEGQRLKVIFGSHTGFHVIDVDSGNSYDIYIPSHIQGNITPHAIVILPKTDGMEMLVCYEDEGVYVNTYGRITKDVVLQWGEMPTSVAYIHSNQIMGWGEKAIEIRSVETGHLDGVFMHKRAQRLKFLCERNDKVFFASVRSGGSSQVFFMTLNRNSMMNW
T5 sequence (P57059 whole entry): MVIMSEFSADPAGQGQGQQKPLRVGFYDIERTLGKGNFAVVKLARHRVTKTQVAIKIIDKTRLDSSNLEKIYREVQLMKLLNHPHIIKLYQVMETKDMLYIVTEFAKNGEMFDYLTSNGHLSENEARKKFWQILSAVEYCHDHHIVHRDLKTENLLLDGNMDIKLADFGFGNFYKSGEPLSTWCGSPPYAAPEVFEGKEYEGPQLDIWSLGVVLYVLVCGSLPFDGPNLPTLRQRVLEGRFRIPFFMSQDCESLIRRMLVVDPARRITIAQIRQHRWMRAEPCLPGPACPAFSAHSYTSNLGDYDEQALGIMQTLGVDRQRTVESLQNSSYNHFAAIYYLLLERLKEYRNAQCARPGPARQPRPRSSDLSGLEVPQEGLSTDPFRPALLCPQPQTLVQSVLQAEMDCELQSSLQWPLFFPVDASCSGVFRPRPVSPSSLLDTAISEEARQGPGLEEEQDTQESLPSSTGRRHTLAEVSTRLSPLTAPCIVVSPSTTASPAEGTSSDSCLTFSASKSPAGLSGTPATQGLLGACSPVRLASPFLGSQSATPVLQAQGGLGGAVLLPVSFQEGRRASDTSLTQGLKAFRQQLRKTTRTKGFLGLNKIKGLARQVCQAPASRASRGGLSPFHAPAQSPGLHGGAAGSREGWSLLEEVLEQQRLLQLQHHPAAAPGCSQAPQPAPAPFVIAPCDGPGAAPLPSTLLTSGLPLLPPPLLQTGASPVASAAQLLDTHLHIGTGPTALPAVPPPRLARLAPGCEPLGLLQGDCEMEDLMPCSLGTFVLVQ

One may read the inhibition as the relative decrease from the control value, in per cent. As for `C=CC(=O)Nc1cc(-c2cc(-c3cc4c([nH]3)CCNC4=O)ccn2)ccc1OC(F)(F)F` [compound 11], the inhibition at 0.01 µM in assay [1] (10 nM) is 1%; in assay [2] (10 nM), -21%; in assay [3] (10 nM), 1%; in assay [4] (10 nM) it was 6%; in assay [5] (10 nM), 2%; in assay [6] (10 nM) it was -12%. Further, the inhibition at 0.01 µM in assay [7] (10 nM) is -10%. The inhibition at 0.1 µM amounted to 2% in assay [1] (100 nM); 4% in assay [2] (100 nM); 10% in assay [3] (100 nM); 20% in assay [4] (100 nM); 4% in assay [5] (100 nM); 9% in assay [6] (100 nM). In assay [7] (100 nM), the inhibition at 0.1 µM was -4%. Moreover, the inhibition at 1 µM was 1% in assay [1] (1000 nM); 28% in assay [2] (1000 nM); 7% in assay [3] (1000 nM); 65% in assay [4] (1000 nM); -3% in assay [5] (1000 nM); 42% in assay [6] (1000 nM). Also, the inhibition at 1 µM in assay [7] (1000 nM) was found to be 5%.
